Legend:
[1] = target: T1, human 5-HT7 receptor (Homo sapiens (Human), UniProt P34969); assay: Test 1: binding activity for human 5-HT7 receptor ([3H]SB-269970, CHO cell membrane fraction); details: [3H]SB-269970, room temperature 60 minutes
Method: (§1) Ki value was evaluated from dissociation constant which was calculated from saturated binding tests, and a substrate concentration, and it was used as an index for binding affinity.

[2] = target: human D2 receptor (Homo sapiens (Human), UniProt P14416); assay: Test 1: binding activity for human D2 receptor ([3H]Spiperone, CHO cell membrane fraction); details: [3H]Spiperone, room temperature 60 minutes
Chain of human D2 receptor (P14416 whole entry): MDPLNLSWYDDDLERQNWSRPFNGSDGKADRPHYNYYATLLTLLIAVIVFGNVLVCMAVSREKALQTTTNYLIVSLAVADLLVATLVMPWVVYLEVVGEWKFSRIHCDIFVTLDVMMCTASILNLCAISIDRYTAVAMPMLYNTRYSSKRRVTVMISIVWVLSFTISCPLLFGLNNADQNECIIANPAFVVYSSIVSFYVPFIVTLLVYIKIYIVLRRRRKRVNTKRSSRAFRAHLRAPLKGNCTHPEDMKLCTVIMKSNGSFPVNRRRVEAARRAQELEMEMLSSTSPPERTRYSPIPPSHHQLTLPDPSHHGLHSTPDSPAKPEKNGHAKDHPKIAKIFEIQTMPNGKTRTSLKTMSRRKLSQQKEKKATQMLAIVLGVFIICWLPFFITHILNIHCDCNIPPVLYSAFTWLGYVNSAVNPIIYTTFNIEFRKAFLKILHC
Method: as §1

[3] = target: T1, human 5-HT7 receptor; assay: Test 2: antagonist activity for human 5-HT7 receptor (aequorin luminescence, CHO-K1 cells); format: cell-based; details: Gα16
Method: Test 2: Evaluation of Antagonist Activity for Human 5-HT2A Receptor and Human 5-HT7 Receptor
Aequorin, Gα 16 protein, and each receptor were transiently expressed in CHO-K1 cells (Chinese hamster ovary). The cells were cultivated in a CO2 incubator at 37° C. overnight, seeded into a 384-well plate, and stood at room temperature for 2 hours. Each compound dissolved in DMSO was added thereto, and changes in luminescence were measured by FDSS/μCELL drug discovery screening support system (Hamamatsu Photonics K.K.). As for antagonist activity, inhibitory activity of each compound was calculated by setting the luminescence level of wells to which 10 μmol/L endogenous ligand was added as 100%.

[4] = Test 3-1: metabolic stability test in human hepatic microsome; format: in vitro ADME; details: microsome 0.1 mg/mL, test compound 0.1 μmol/L, 37° C., 30 minutes
Method: Test 3-1: Metabolic Stability Test in Human Hepatic Microsome
The metabolic stability of the present compound in human hepatic microsome was evaluated as mentioned below. Human hepatic microsome was obtained from Xenontech. Human hepatic microsome, NADPH, and each test compound were mixed in 25 mmol/L phosphate buffer solution (pH 7.4) to reach the following concentrations as shown below, and the mixture was incubated at 37° C. for 30 minutes. • Human hepatic microsome: 0.1 mg/mL • NADPH: 3.2 mmol/L • Test compound: 0.1 μmol/L
The residual ratio of test compound in each sample after 30 minutes was measured by LC-MS, and the metabolic stability in human hepatic microsome was calculated from the following formula. Metabolic stability in human hepatic microsome (mL/min/mg protein)=−LN (residual ratio)/30/0.1

[5] = target: hERG channel (Homo sapiens (Human), UniProt Q12809); assay: Test 5: inhibitory activity for hERG channel (whole cell patch clamp, hERG-CHO cells); format: cell-based; details: hERG-CHO cells, auto patch clamp
Chain of hERG channel (Q12809 whole entry): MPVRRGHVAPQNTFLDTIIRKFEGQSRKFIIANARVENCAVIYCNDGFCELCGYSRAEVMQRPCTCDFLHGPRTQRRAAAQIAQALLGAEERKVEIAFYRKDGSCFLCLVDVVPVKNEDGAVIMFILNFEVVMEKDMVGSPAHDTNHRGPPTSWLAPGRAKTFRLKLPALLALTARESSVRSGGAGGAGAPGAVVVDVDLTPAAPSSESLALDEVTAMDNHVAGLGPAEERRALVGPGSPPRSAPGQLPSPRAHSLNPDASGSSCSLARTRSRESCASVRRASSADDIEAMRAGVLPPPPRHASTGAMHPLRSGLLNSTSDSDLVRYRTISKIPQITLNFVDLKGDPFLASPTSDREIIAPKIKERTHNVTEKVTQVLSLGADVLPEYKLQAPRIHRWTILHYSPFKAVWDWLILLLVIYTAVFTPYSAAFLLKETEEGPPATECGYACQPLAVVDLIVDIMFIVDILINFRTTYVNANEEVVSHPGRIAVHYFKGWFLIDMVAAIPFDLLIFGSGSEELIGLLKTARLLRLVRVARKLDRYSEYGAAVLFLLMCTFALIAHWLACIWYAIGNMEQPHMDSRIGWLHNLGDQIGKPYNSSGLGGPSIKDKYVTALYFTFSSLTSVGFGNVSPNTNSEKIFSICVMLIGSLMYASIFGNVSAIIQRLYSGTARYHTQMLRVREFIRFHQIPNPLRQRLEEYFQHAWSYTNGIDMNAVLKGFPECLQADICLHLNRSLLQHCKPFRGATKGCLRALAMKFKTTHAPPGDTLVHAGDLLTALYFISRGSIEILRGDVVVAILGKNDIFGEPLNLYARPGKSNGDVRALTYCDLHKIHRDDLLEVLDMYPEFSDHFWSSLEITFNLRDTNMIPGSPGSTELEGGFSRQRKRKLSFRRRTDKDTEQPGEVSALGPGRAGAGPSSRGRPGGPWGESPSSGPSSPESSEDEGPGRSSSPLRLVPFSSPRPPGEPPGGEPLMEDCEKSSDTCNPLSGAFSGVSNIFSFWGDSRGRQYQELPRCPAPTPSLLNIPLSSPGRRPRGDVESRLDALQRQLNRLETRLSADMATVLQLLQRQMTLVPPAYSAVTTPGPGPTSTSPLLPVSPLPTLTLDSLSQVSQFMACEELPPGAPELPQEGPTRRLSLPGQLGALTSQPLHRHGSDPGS
Method: Test 5: Evaluation of Inhibitory Activity for hERG Channel
Inhibitory activity of the present compound for hERG channel was measured by whole cell patch clamp method with an auto patch clamp system using CHO cells in which hERG channel involved in human rapidly activating delayed rectifier potassium current (IKr) was forcibly expressed.
hERG-CHO cells purchased from ChanTest Cop. were cultured in a CO2 incubator at 37° C., and dissociated from a flask with trypsin shortly before the measurement of hERG current to prepare a cell suspension.
The cell suspension, the extracellular fluid, the intracellular fluid, and the measurement plate were set in an auto patch clamp system, and hERG current was measured by whole cell patch clamp method. […] Each pulse interval was 15 seconds. The data analysis was carried out with Qube Assay Software (Sophion Sophion). The test was carried out by applying incrementally 4 concentrations of each test compound, and the average of the maximum peak tail currents which were obtained from the last 3 stimulations in each concentration was determined as the evaluated data.

T1 sequence (P34969 whole entry): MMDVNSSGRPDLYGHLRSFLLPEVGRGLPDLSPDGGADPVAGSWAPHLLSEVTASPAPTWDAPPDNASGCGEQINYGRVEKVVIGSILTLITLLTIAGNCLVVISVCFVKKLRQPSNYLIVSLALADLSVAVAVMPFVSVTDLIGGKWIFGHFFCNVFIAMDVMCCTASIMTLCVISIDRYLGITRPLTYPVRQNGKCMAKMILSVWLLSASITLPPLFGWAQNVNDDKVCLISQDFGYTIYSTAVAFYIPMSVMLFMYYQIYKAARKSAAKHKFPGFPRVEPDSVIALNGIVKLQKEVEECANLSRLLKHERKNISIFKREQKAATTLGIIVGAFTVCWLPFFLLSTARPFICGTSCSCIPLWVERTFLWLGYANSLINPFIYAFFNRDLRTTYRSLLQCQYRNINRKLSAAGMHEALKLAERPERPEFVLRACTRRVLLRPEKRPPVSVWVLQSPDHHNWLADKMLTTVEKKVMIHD

Row | Ki [1] [nM] | Ki [2] [nM] | IC50 [3] [nM] | Metabolic stability in human hepatic microsome [4] [mL/min/mg protein] | SMILES | IC50 [5] [nM]
1 | 4.3 | < 100 | 82 | <0.05 | CCN(CCN1CCC(c2noc3cc(F)ccc23)CC1)C(=O)[C@H]1CC[C@H](O)CC1 [Example 43] | –
2 | 2.4 | 116 | 66 | 0.186 | CCN(CCN1CCC(c2noc3cc(F)ccc23)CC1)C(=O)C(O)CCC(=O)OC (stereo not drawn) [Example 5] | 1100
3 | 7.9 | > 1000 | 68 | <0.05 | CCN(CCN1CCC(c2c[nH]c3ccccc23)CC1)C(=O)[C@H](C)O [Example 23, (2S)—N-Ethyl-2-hydroxy-N-{2-[4-(1H-indol-3-yl)piperidin-1-yl]ethyl}propanamide] | > 10000
4 | 6.9 | – | 82 | 0.089 | CCN(CCN1CCC(c2noc3cc(F)ccc23)CC1)C(=O)CO [Example 12] | 2200
5 | 1.1 | < 100 | 66 | <0.05 | CCN(CCN1CCC(c2noc3cc(F)ccc23)CC1)C(=O)C(C)CO (stereo not drawn) [Example 37] | > 10000
6 | 1.6 | < 100 | 8 | <0.05 | CCN(CCN1CCC(c2noc3cc(F)ccc23)CC1)C(=O)C1CCC(O)CC1 (stereo not drawn) [Example 9] | –
7 | 1.6 | 55 | 59 | 0.268 | CCN(CCN1CCC(c2noc3cc(F)ccc23)CC1)C(=O)C1CCCCC1O (stereo not drawn) [Example 33] | 2200
8 | 1.5 | < 100 | 85 | <0.05 | CCN(CCN1CCC(c2noc3cc(F)ccc23)CC1)C(=O)C1(O)CCCNC1 (stereo not drawn) [Example 69] | > 10000
9 | 2.3 | 105 | 61 | <0.05 | CCN(CCN1CCC(c2n[nH]c3cc(F)ccc23)CC1)C(=O)C(C)O (stereo not drawn) [Example 19, N-Ethyl-N-{2-[4-(6-fluoro-1H-indazol-3-yl)piperidin-1-yl]ethyl}-2-hydroxypropanamide] | > 10000
10 | – | – | – | <0.05 | CCN(CCN1CCC(c2noc3cc(F)ccc23)CC1)C(=O)C(C)O (stereo not drawn) [Example 4] | 7100
11 | 4.2 | 75 | 83 | <0.05 | CCN(CCN1CCC(c2noc3cc(F)ccc23)CC1)C(=O)C1CC(O)C1 (stereo not drawn) [Example 46] | –
12 | – | > 1000 | – | <0.05 | CCN(CCN1CCC(n2ncc3cc(F)ccc32)CC1)C(=O)[C@H](C)O [Example 21, (2S)—N-Ethyl-N-{2-[4-(5-fluoro-1H-indazol-1-yl)piperidin-1-yl]ethyl}-2-hydroxypropanamide] | 15300
13 | 1 | 80 | 82 | <0.05 | CCN(CCN1CCC(c2noc3cc(F)ccc23)CC1)C(=O)C(F)(F)CO [Example 36] | –
14 | 3.2 | < 100 | 77 | <0.05 | CCN(CCN1CCC(c2noc3cc(F)ccc23)CC1)C(=O)[C@H]1CC[C@@H](O)CC1 [Example 44] | –
15 | 110 | > 10000 | 73 | – | CC(O)C(=O)N(CC#N)CCN1CCC(c2noc3cc(F)ccc23)CC1 (stereo not drawn) [Example 32] | –
16 | – | > 1000 | – | <0.05 | CCN(CCN1CCC(n2ncc3cc(F)ccc32)CC1)C(=O)[C@@H](C)O [Example 3, (2R)—N-Ethyl-N-{2-[4-(5-fluoro-1H-indazol-1-yl)piperidin-1-yl]ethyl}-2-hydroxypropanamide] | > 10000
17 | – | – | – | <0.05 | CCN(CCN1CCC(c2noc3cc(F)ccc23)CC1)C(=O)[C@@H](C)O [Example 1, (2R)—N-Ethyl-N-{2-[4-(6-fluoro-1,2-benzoisoxazol-3-yl)piperidin-1-yl]ethyl}-2-hydroxypropanamide] | 4800
18 | 48.5 | 910 | 91 | <0.05 | CCN(CCN1CCC(c2noc3cc(F)ccc23)CC1)C(=O)[C@H]1NCC[C@H]1O [Example 68] | –
19 | 26.4 | > 1000 | 86 | – | CCN(CCN1CCC(c2noc3cc(Cl)ccc23)CC1)C(=O)[C@H](C)O [Example 15] | –
20 | 10 | < 100 | 80 | – | C#CC(O)C(=O)N(CC)CCN1CCC(c2noc3cc(F)ccc23)CC1 (stereo not drawn) [Example 28] | –

The remaining lines, values behind:

Row | SMILES | Ki [1] [nM] | Ki [2] [nM] | IC50 [3] [nM] | Metabolic stability in human hepatic microsome [4] [mL/min/mg protein] | IC50 [5] [nM]
21 | CCN(CCN1CCC(c2noc3cc(F)ccc23)CC1)C(=O)C1(O)CCCN(C(C)=O)C1 (stereo not drawn) [Example 72] | 10.6 | < 100 | 8 | 0.057 | 9900
22 | CCN(CCN1CCC(c2noc3cc(F)ccc23)CC1)C(=O)C(O)CN (stereo not drawn) [Example 65, 3-Amino-N-ethyl-N-{2-[4-(6-fluoro-1,2-benzoisoxazol-3-yl)piperidin-1-yl]ethyl}-2-hydroxypropanamide] | 7.6 | 195 | 81 | <0.05 | –
23 | CCN(CCN1CCC(c2c[nH]c3cc(F)ccc23)CC1)C(=O)CCO [Example 48] | 2.7 | 80 | 18 | <0.05 | 2900
24 | CCN(CCN1CCC(c2noc3cc(F)ccc23)CC1)C(=O)C1CN(C(C)=O)CC1O (stereo not drawn) [Example 73] | 14.4 | 205 | 81 | – | –
25 | CCN(CCN1CCC(c2noc3cc(F)ccc23)CC1)C(=O)C(C)(C)O [Example 6] | 5.7 | 278 | 66 | 0.053 | 1500
26 | CCN(CCN1CCC(c2noc3cc(F)ccc23)CC1)C(=O)C1CNCCC1O (stereo not drawn) [Example 67] | 0.9 | < 100 | 72 | <0.05 | > 10000
27 | CCCN(CCN1CCC(c2noc3cc(F)ccc23)CC1)C(=O)C(C)O (stereo not drawn) [Example 39] | 0.7 | < 100 | 9 | <0.05 | –
28 | CCN(CCN1CCC(c2noc3ccc(C)cc23)CC1)C(=O)[C@H](C)O [Example 14] | 14.6 | > 1000 | 82 | – | 9600
29 | CCN(CCCN1CCC(c2noc3ccccc23)CC1)S(=O)(=O)C(C)CO (stereo not drawn) [Example 54] | 2.6 | 116 | 1 | <0.05 | –
30 | CCN(CCCN1CCN(c2noc3cc(F)ccc23)CC1)S(=O)(=O)C(C)CO (stereo not drawn) [Example 55] | 0.1 | 78 | 3 | 0.059 | –
31 | CCN(CCN1CCC(c2c[nH]c3cc(F)ccc23)CC1)C(=O)[C@H](C)O [Example 20, (2S)—N-Ethyl-N-{2-[4-(6-fluoro-1H-indol-3-yl)piperidin-1-yl]ethyl}-2-hydroxypropanamide] | 1.5 | 46 | 48 | <0.05 | –
32 | CCN(CCN1CCC(c2noc3cc(Cl)ccc23)CC1)S(=O)(=O)CCO [Example 60] | 24.3 | > 1000 | 72 | – | –
33 | [2H]C(C)(O)C(=O)N(CC)CCN1CCC(c2noc3cc(F)ccc23)CC1 (stereo not drawn) [Example 40] | – | – | – | <0.05 | 9900
